In one series the test system is HSV-2. The series is described as follows: In vitro antiviral assay for HSV-2. The format is cell-based, Herpes Simplex Virus 2. The gist of the method:
(§1)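 Performed according to previously reported procedures for each virus; no further conditions are given for the HSV-2, CMV, HIV or EBV assays.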

For the next series, the system named is EBV. The series is described as follows: In vitro antiviral assay for EBV. The format is cell-based, Epstein-Barr Virus. The gist of the method:
as §1

Another series concerns HSV-1. Nature of the series: In vitro antiviral assay for HSV-1. The format is cell-based, Herpes Simplex Virus 1. The gist of the method:
as §1

A further series relates to HIV. The series is described as follows: In vitro antiviral assay for HIV. The format is cell-based, human immunodeficiency virus. Particulars: (T) after a value means toxic. In a few lines: as §1
Another series deals with MT-2 cells. Nature of the series: Cell cytotoxicity assay on MT-2 cells. The format is cell-based. The following applies: read-out: Cytotoxity (ID50, μM) MT-2. The gist of the method:
(§2)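 MT-2 and CEM cytotoxicity determined per previously reported procedures. HepG2 cells seeded at 10^4 cells/ml in MEME + 10% FBS, compound added on day 2 for 3 further days at 37° C. Viable layer stained with methylene blue, solubilized in 1% sarcosyl, A595 read.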

Another series deals with CEM cells. Nature of the series: Cell cytotoxicity assay on CEM cells. The format is cell-based. The following applies: read-out: Cytotoxity (ID50, μM) CEM. In a few lines: as §2
Another series concerns HBV. Nature of the series: In vitro antiviral assay for HBV (Table 1). The format is cell-based, Hepatitis B virus. Particulars: read-out: Antiviral Activities (EC50, μM) HBV.
The subject of series [1] is HCV. The series is described as follows: Anti-HCV activity in Huh-Luc/neo cell line, luciferase activity after 3-day treatment. The format is cell-based, Hepatitis C virus. Particulars: Huh-Luc/neo cells; for EC50: given as a bound only, read-out: Antiviral Activities (EC50, μM) HCV.
The nature of series [2]: Cell cytotoxicity assay on MT-2 cells. The format is cell-based. The following applies: human, read-out: Cytotoxity (ID50, μM) MT-2. In a few lines: as §2
Series [3] is described as follows: Cell cytotoxicity assay on CEM cells. The format is cell-based. Particulars: human, read-out: Cytotoxity (ID50, μM) CEM. In a few lines:
as §2

The next series relates to CMV. The series is described as follows: In vitro antiviral assay for CMV. The format is cell-based, cytomegalovirus. As to the method: The antiviral assays for HBV, (Doong et al., 1991, Proc. Natl. Acad. Sci. U.S.A. 88:8495-8499) HSV-1, (Bastow et al., 1983, Antimicrob. Agents Chemother. 23: 914-917) HSV-2, (Bastow et al., 1983, Antimicrob. Agents Chemother. 23:914-917) EBV, (Yao et al., 1993, Antimicrob. Agents Chemother. 37:1420-1425), CMV (Andreoni et al., 2002, J. Med. Virol. 67:33-40) and HIV (Mellors et al., 1992, Mol. Pharmacol. 41: 446-451) were performed according to the previously reported procedures. Anti-HCV activities were tested in Huh-Luc/neo cell line. Cells were seeded into 48-well plates and grown until confluent. Different concentrations of drugs were added into media (DMEM, 10% dFBS) and incubated for 3 days. At the end of 3-day treatment, medium were removed and 50 μl of Passive lysis buffer (Promega) were added. Cell lysate was shaken at room temperature for 15 min. 30 μl/well of cell lysate was transferred to another 96-well plate, 100 μl/well of luciferase activity assay substrate was added into plate and read by a luminometer (Amersham) immediately.

In series [4] the test system is HCV. The following applies: ribavirin alone; cited from earlier work.
Series [5] concerns HCV. Particulars: patients chronically infected with HCV, IFN as sole treatment; cited from earlier work.
[6] abbreviates: in vitro, read-out: Antiviral Activities (EC50, μM) HSV-2.
[7] abbreviates: in vitro, read-out: Antiviral Activities (EC50, μM) EBV.
The mark [8] stands for this setting: in vitro, read-out: Antiviral Activities (EC50, μM) HSV-1.
Setting [9] is: in vitro, read-out: Antiviral Activities (EC50, μM) HIV.
[10] abbreviates: Human alphaherpesvirus 2, read-out: Antiviral Activities (EC50, μM) HSV-2.
Where [11] appears, read: human gammaherpesvirus 4, read-out: Antiviral Activities (EC50, μM) EBV.
Setting [12] is: Human alphaherpesvirus 1, read-out: Antiviral Activities (EC50, μM) HSV-1.
The mark [13] stands for this setting: Human immunodeficiency virus 1, read-out: Antiviral Activities (EC50, μM) HIV, in vitro.
The mark [14] stands for this setting: Human betaherpesvirus 5, read-out: Antiviral Activities (EC50, μM) CMV.
The mark [15] stands for this setting: Hepatitis C virus, 72 h, 3 days.

Where a name gives a salt, the structure may show the parent alone. Read-outs that look alike come from different tables or passages of the source.

Consider `O=C1c2cc3ccc4c(c3c(-c3ccc5c(c3)OCO5)c2C(=O)N1CCCOCc1ccccc1)OCO4` [Compound 10, 10-Benzo[1,3]dioxol-5-yl-8-(3-benzyloxy-propyl)-1,3-dioxa-8-aza-dicycloplenta[a,g]naphthalene-7,9-dione], for which the EC50 is more than 50 µM in the series on HSV-2 (setting [6]); more than 5 µM in the series on EBV (setting [7]); more than 50 µM with HSV-1 (setting [8]); more than 100 µM in the series on HIV (setting [9]); more than 10 µM in the series on HBV (in vitro). The IC50 with MT-2 cells and in the series with CEM cells was more than 100 µM each time. The “HCV percent of inhibition” value in the series on HCV [1] (at 10 μM, 3 days) stood at 62%.
Regarding `O=C1NCc2cc3ccc4c(c3c(-c3ccc5c(c3)OCO5)c21)OCO4` [Compound 16, 10-Benzo[1,3]dioxol-5-yl-7,8-dihydro-13-dioxa-8-aza-dicyclopenta[a,g]naphthalen-9-one], the EC50 in the series on HSV-2 (setting [6]) was more than 50 µM; in the series with EBV (setting [7]), more than 20 µM; in the series on HSV-1 (setting [8]), more than 50 µM; with HIV (setting [9]), more than 100 µM; in the series on HBV (in vitro) it was more than 10 µM; in the series with HCV [1] (3 days) it was more than 10 µM. In addition, the IC50 in the series on MT-2 cells was more than 100 µM; in the series with CEM cells, 90 µM.
As to `O=C1OCc2c1cc1c(Cl)cc3c(c1c2-c1ccc2c(c1)OCO2)OCO3` [Compound 37, 10-Benzo[1,3]dioxol-5-yl-5-chloro-9H-furo[3′,4′:6,7]naphtho[1,2-d][1,3]dioxol-7-one], the melting point was 267 °C (dec.). Also, the EC50 in the series on HSV-2 (setting [10]) is more than 25 µM. Besides, in the series with EBV (setting [11]), the concentration giving a half-maximal response (EC50) was more than 20 µM. Further, the EC50 in the series with HSV-1 (setting [12]) was determined as 23 µM. The EC50 in the series on HIV (setting [13]) was more than 50 µM. For the same molecule, the IC50 in series [2] was 50 µM. In addition, the IC50 in series [3] was determined as 27 µM. Also, in the series with HBV (Hepatitis B virus), the EC50 is more than 10 µM. Moreover, the EC50 in the series on CMV (setting [14]) came to 8.8 µM. Also, in the series with HCV [1] (setting [15]), the half-maximal effective concentration (EC50) is more than 10 µM.
With `O=c1[nH][nH]c(=O)c2c(-c3ccc4c(c3)OCO4)c3c4c(cc(Br)c3cc12)OCO4` [Compound 42, 11-Benzo[1,3]dioxol-5-yl-5-bromo-8,9-dihydro-[1,3]dioxa-8,9-diaza-cyclopenta[a]anthracene-7,10-dione], the concentration giving a half-maximal response (EC50) is more than 20 µM in the series with HSV-2 (setting [6]), more than 20 µM in the series with EBV (setting [7]), 16 µM with HSV-1 (setting [8]) and more than 20 µM in the series on HBV (in vitro). Moreover, the IC50 in the series with MT-2 cells was more than 100 µM; in the series with CEM cells it was 28 µM. For the same molecule, in the series with HCV [1] (at 3 μM, 3 days), the “HCV percent of inhibition” value was found to be 45%.
`O=C([O-])c1cc2c(Cl)cc3c(c2c(-c2ccc4c(c2)OCO4)c1CO)OCO3.[Na+]` [Compound 44, 9-Benzo[1,3]dioxol-5-yl-5-chloro-8-hydroxymethyl-naphtho[1,2-d][1,3]dioxole-7-carboxylic acid monosodium salt]: the melting point was 220 °C (dec.). Besides, the EC50 with HSV-2 (setting [10]) was more than 50 µM. Also, in the series with EBV (setting [11]), the EC50 was more than 20 µM. In the series with HSV-1 (setting [12]), the EC50 was more than 50 µM. Besides, the EC50 in the series on HIV (setting [13]) is more than 60 µM. The IC50 in series [2] is 60 µM. The IC50 in [3] was more than 100 µM. The EC50 with HBV (Hepatitis B virus) is more than 10 µM. For the same molecule, the EC50 in the series on CMV (setting [14]) was more than 20 µM. The EC50 in the series on HCV [1] (setting [15]) is more than 10 µM.
As to `O=C(O)c1cc2c(Br)cc3c(c2c(-c2ccc4c(c2)OCO4)c1CO)OCO3` [Compound 45, 9-Benzo[1,3]dioxol-5-yl-5-bromo-8-hydroxymethyl-naphtho[1,2-d][1.3]dioxole-7-carboxylic acid monosodium salt], the concentration for a half-maximal effect (EC50) in the series with HSV-2 (setting [6]) was more than 50 µM; in the series with EBV (setting [7]) it was more than 20 µM; with HSV-1 (setting [8]), more than 50 µM; in the series with HIV (setting [9]) it was more than 50 µM; in the series with HBV (in vitro), more than 10 µM; in the series on CMV (in vitro, read-out: Antiviral Activities (EC50, μM) CMV) it was more than 20 µM. Further, the IC50 in the series on MT-2 cells was 50 µM; with CEM cells, 46.5 µM.
With `O=C([O-])c1cc2c(I)cc3c(c2c(-c2ccc4c(c2)OCO4)c1CO)OCO3.[Na+]` [Compound 46, 9-Benzo[1,3]dioxol-5-yl-8-hydroxymethyl-5-iodo-naphtho[1,2-d][1,3]dioxole-7-carboxylic acid monosodium salt], the melting point was 212 °C (dec.). Further, the EC50 with HSV-2 (setting [10]) was more than 50 µM. Also, in the series with EBV (setting [11]), the EC50 was more than 20 µM. Moreover, the EC50 with HSV-1 (setting [12]) was more than 50 µM. Moreover, in the series with HIV (setting [13]), the EC50 was more than 80 µM. Moreover, the IC50 in series [2] amounted to 80 µM. In addition, the IC50 in [3] was more than 100 µM. The concentration giving a half-maximal response (EC50) in the series with HBV (Hepatitis B virus) is more than 18 µM. Besides, the EC50 in the series on CMV (setting [14]) is more than 20 µM. Further, the inhibition at 10 µM in the series on HCV [1] (Hepatitis C virus, 72 h, at 10 μM, 3 days, read-out: HCV percent of inhibition) is 36%.
On to `NC(=O)c1ncn([C@@H]2O[C@H](CO)[C@@H](O)[C@H]2O)n1` [Ribavirin, 1-beta-D-ribofuranosyl-1-1,2,4-triazole-3-carboxamide], for which the “patients in whom serum amino transferase levels are reduced to normal” value in the series with HCV [4] was 40%.
Consider Interferon, for which, in the series on HCV [5], the “patients with a sustained response” value is listed as 8%-9%. Further, the “HCV column: concentration at which the percent of inhibition was seen” value in the series on HCV [1] (Interferon control) was 10 u/ml. For the same molecule, the “HCV percent of inhibition” value in the series on HCV [1] (at 10 u/ml) is “(90) %”.

By EC50 is commonly meant the concentration giving half of the maximal effect. The term melting point denotes the temperature of the solid-liquid transition. What is called inhibition is the drop in the measured response relative to a control, in per cent.

Values taken from patent US7754718B2 (priority 2004, dated 2010).
